Source: PMC9159100, “Intramitochondrial co-assembly between ATP and nucleopeptides induces cancer cell apoptosis” (Chemical Science, 2022)
Square brackets hold non-standard residues; d marks the D form. Peptide text beside a SMILES is read from it. * marks the point of attachment. Acetyl(thymin-1-yl) = Cc1cn(CC(=O)*)c(=O)[nH]c1=O; Cha = N[C@@H](CC1CCCCC1)C(=O)O

How the values were obtained:
[1] = test system: IMR90 cells; type: cell-based
Protocol: page 16: S7. Cell culture and MTT assay Cell culture: HeLa and IMR90 cells were purchased from American-type Culture Collection (ATCC, USA). Hela and IMR90 were cultured in Dulbecco’s Modified Eagle’s medium (DMEM) supplemented with 10% v fetal bovine serum (FBS), 100 U/mL penicillin and 100 μg/mL streptomycin. All cells were cultured at 37 °C in a […] For MTT assay, cells were seeded in a 96-well plate with the density of 5*103 cells per-well. After 24 hours seeding, the solutions of samples with a serial of concentr ations (5 concentrations and control) were added to each well. 10 μL MTT solution (5 mg/mL) was added to each well and incubated at 37°C for 2 days incubation and incubated for another 4 h, and then 100 μL of SDS-HCl solution was added to stop the reductio n reaction and dissolve the purple formazan. The absorbance of each well at 595 nm was measured by a multimode microplate reader. The cytotoxicity assay was performed three times and the average value of the three measurements was taken. ATP depletion method: Cells were pre -incubated with 10 mM sodium azide ( NaN3), 6 mM 2DG(2-deoxy-glucose) […] After 40 minutes, cells were washed with PBS and free medium. MNP/ADP complex was treated to ATP depleted HeLa cells for 48 hours to assess cytotoxicity.

[2] = Turbidity / appearance of aqueous solution (photograph, transmittance at 280 nm); type: physicochemical; details: 200 μM in aqueous solution, ATP added
Protocol: First, we investigated the self-assembly ability and interaction between MNP and ADP or ATP. […] As can be evinced from Fig. 1b and c, the formed nanostructure consisted of approximately 500 nm-sized micellar structures according to transmission electron microscopy (TEM) and scanning electron microscopy (SEM). This is further confirmed by the turbidity of the solution which was determined by transmittance using UV-Vis spectroscopy. […] Transmission electron (TEM) microscopy images of (a) MNP/ADP complex (scale bar: 100 nm) and (b) MNP/ATP complex at 200 μM concentration in aqueous solution (scale bar: 500 nm); (c) scanning electron microscopy image of the MNP/ATP complex at 200 μM concentration in aqueous solution (scale bar: 500 nm); (d) sample turbidity measured by transmittance at 280 nm (inset: photograph) of the MNP, MNP/ADP complex and MNP/ATP complex at 200 μM concentration in aqueous solution; (e) confocal images of the MNP-NBD/ATP complex (Scale bar: 1 μm); (f) photograph of the aqueous solutions of the control molecules (AcNP and MNP2) and MNP in a complex with ATP (concentration: 200 μM). […] S3. ^† Micellar structures characterized by green fluorescence (Fig. 1e) were observed by confocal laser scanning microscopy performed on the MNP-NBD/ATP complex at 200 μM concentration in aqueous solution. […]

Structure (SMILES): CC(=O)N[C@H](CCCNC(=N)N)C(=O)N[C@H](CCCNC(=N)N)C(=O)N[C@@H](CC1CCCCC1)C(=O)N[C@H](CCCNC(=N)N)C(=O)N[C@@H](CC1CCCCC1)C(=O)N[C@H](CCCNC(=N)N)C(=O)N[C@@H](CC1CCCCC1)C(=O)N[C@@H](Cc1ccccc1)C(=O)N[C@@H](Cc1ccccc1)C(=O)O [AcNP, Ac–rrFxrFxrFxFF] (Ac-[dR][dR][Cha][dR][Cha][dR][Cha]FF-OH)
- toxicity toward IMR90 cells above 25 μM [1]: less toxicity
- toxicity toward IMR90 cells at 25 μM [1]: almost no toxicity

Structure (SMILES): Cc1cn(CC(=O)N[C@H](CCCNC(=N)N)C(=O)N[C@H](CCCNC(=N)N)C(=O)N[C@@H](CC2CCCCC2)C(=O)N[C@H](CCCNC(=N)N)C(=O)N[C@@H](CC2CCCCC2)C(=O)N[C@H](CCCNC(=N)N)C(=O)N[C@@H](CC2CCCCC2)C(=O)O)c(=O)[nH]c1=O [MNP2, Thy–rrFxrFxrFx] ({Acetyl(thymin-1-yl)}-[dR][dR][Cha][dR][Cha][dR][Cha]-OH)
- appearance of solution in the presence of ATP [2]: did not become cloudy
